{"source": "patent US11020457B2", "about": "“Compositions and methods for protecting the kidney from ischemia reperfusion injury” (University of Virginia Patent Foundation, priority 2013, dated 2021)", "assay_type_in_all_cases": "in vivo", "key": {"[1]": {"tested_on": "C57BL/6 mice", "assay": "Renal IRI in WT mice: flow cytometry of kidney immune cells", "conditions": "hepcidin vs untreated IRI, p<0.005", "experimental": "All experiments were performed in accordance with the National Institutes of Health and Institutional Animal Care and Use Guidelines. The Animal Care and Use Committee of the University of Virginia approved all procedures and protocols. C57BL/6 mice from the Jackson Laboratory and hepcidin knockout mice (HAMP−/−), a kind gift from Dr Cindy Roy (John Hopkins University) were used in this study. All experiments were performed on 8-10 weeks old male mice. Kidney ischemia-reperfusion surgery was performed as previously reported (44). The core temperature of the mice was maintained between 34° C. and 36° C. using a heating pad. After anesthetizing the mice (ketamine, 12 mg/ml; atropine, 0.48 mg/ml; xylazine, 24 mg/ml; […] mixture administered per 20 g body weight), bilateral flank incisions were made, both renal pedicles were exposed, and cross-clamped for 26 minutes (severe I/R injury) or 24 minutes (mild I/R injury). After the determined ischemia, clamps were removed, and kidneys were allowed to reperfuse for 24 hours. […]\nSingle-cell suspensions from the kidney were prepared using standard methods. […] Flow cytometry data were acquired using BD FACSCalibur (BD Biosciences, San Jose, Calif.) with Cytek eight-color flow cytometry upgrade (Cytek Development, Fremont, Calif.) and analyzed with FlowJo software 9.0 (Tree Star Inc., Ashland, Oreg.). […]"}, "[2]": {"tested_on": "hepcidin knockout mice (HAMP−/−)", "assay": "Mild renal IRI in HAMP-/- mice: plasma creatinine, histology, NGAL", "conditions": "for plasma creatinine: HAMP-/- mice, single 50 μg bolus of hepcidin 24 hours before 24 min ischemia, 24 hours reperfusion, p<0.0007; for renal histology (H&E): hepcidin treated HAMP-/- IRI mice", "experimental": "All experiments were performed in accordance with the National Institutes of Health and Institutional Animal Care and Use Guidelines. The Animal Care and Use Committee of the University of Virginia approved all procedures and protocols. C57BL/6 mice from the Jackson Laboratory and hepcidin knockout mice (HAMP−/−), a kind gift from Dr Cindy Roy (John Hopkins University) were used in this study. All experiments were performed on 8-10 weeks old male mice. Kidney ischemia-reperfusion surgery was performed as previously reported (44). The core temperature of the mice was maintained between 34° C. and 36° C. using a heating pad. After anesthetizing the mice (ketamine, 12 mg/ml; atropine, 0.48 mg/ml; xylazine, 24 mg/ml; […] mixture administered per 20 g body weight), bilateral flank incisions were made, both renal pedicles were exposed, and cross-clamped for 26 minutes (severe I/R injury) or 24 minutes (mild I/R injury). After the determined ischemia, clamps were removed, and kidneys were allowed to reperfuse for 24 hours. Ambient postoperative air temperature was maintained between 30° C. and 32° C. until mice had fully recovered. Sham-operated animals underwent bilateral flank incisions without clamping of renal pedicles. Twenty-four hours later, mice were euthanized, and tissues were harvested.\nRenal function was determined by measurement of plasma creatinine, determined using a modified Jaffe colorimetric assay (44).\nKidneys were fixed in buffered formalin for 48 h, embedded in paraffin, sectioned (3-μm thickness), and stained with hematoxylin and eosin (H&E). The extent of acute tubular necrosis (ATN) following IRI was assessed using H&E stained kidney sections. An investigator blinded to the sample identities was used for these analyses to have an unbiased approach.\nFor RNA isolation, frozen tissues were re-suspended in RLT buffer (Qiagen Inc, Valencia, Calif.) and homogenized using TissueLyser system (Qiagen Inc, Valencia, Calif.). Total RNA from tissue homogenate was purified using RNAeasy mini kit (Qiagen Inc, Valencia, Calif.) following manufacturers instructions. 1 μg of RNA was used to synthesize cDNA using the iScript cDNA synthesis kit (Bio-Rad). The cDNA template was mixed with iTAQ SYBR green universal super mix (Bio-Rad) and quantitative PCR was carried out on CFX Connect system (Bio-Rad). Predesigned primers for Caspase-3 and Bcl-2 were purchased from Bio-rad. Glyceraldehyde-3-phosphate dehydrogenase (GAPDH) was amplified in parallel and used as the reference gene in quantification. Data is expressed as the relative gene expression and was calculated using the 2 (−ρρC(T)) method.\nGiven the significance of hepcidin-mediated ferroportin regulation in preventing renal IRI, we hypothesized that genetic hepcidin deficiency would aggravate IRI. […] There was no significant rise in plasma creatinine after mild IRI in the WT mice and sham operated HAMP^−/− mice (FIG. 6a). […] Renal histology further corroborated the deleterious effect of hepcidin deficiency in AKI. There were higher numbers of casts and necrotic tubules in the S1, S2 and S3 segments in HAMP^−/− kidneys after IRI (FIG. 6b, and Sup FIG. 3b). To investigate if hepcidin re-constitution could rescue HAMP^−/− mice from IRI, we injected these mice with a single 50 μg bolus of hepcidin, 24 hours before renal ischemia and sacrificed them 24 hours after reperfusion. Strikingly, a single injection of hepcidin afforded an almost complete protection against IRI in the HAMP^−/− mice."}, "[3]": {"tested_on": "folic acid induced acute kidney injury", "assay": "Folic acid induced acute kidney injury (data not shown)"}}, "data": [{"substance": "Mouse hepcidin 25 (DTNFPICIFCCKCCNNSQCGICCKT; listed as Mus musculus)", "values": [{"measurement": "frequency of kidney CD45+ cells", "setting": "[1]; FIG. 4b-c", "result": "reduced renal inflammatory cell infiltration by almost half"}, {"measurement": "kidney neutrophils", "setting": "[1]; FIG. 4c", "result": "significantly reduced IRI-induced renal neutrophil inflammation"}, {"measurement": "kidney NGAL expression", "setting": "[2]; HAMP-/- IRI Vs HAMP-/- Hepcidin-IRI, p<0.05", "result": "significantly lowered NGAL expression"}, {"measurement": "plasma creatinine", "setting": "[2]", "result": "not significantly different than shams and WT mice"}, {"measurement": "plasma creatinine", "setting": "[2]; listed as hepcidin", "result": "significantly lower compared to untreated mice with levels comparable to that in sham-operated mice"}, {"measurement": "renal histology (H&E)", "setting": "[2]", "result": "Hepcidin mediated protection of the kidney after IRI"}, {"measurement": "renal histology (H&E)", "setting": "[2]; listed as hepcidin", "result": "remarkable preservation of renal histology"}, {"measurement": "protection against folic acid induced acute kidney injury", "setting": "[3]", "result": "protective against folic acid induced acute kidney injury"}]}]}
